Earlier results as cited in publication PMC8978187, “Feasibility, Biodistribution, and Preliminary Dosimetry in Peptide-Targeted Radionuclide Therapy of Diverse Adenocarcinomas Using ^177Lu-FAP-2286: First-in-Humans Results” (Journal of Nuclear Medicine, 2022).
Where two headings read alike, the source gives them in different places.

Legend:
tumor = details: compared with ^177Lu-FAP-2286
Description: In our patient cohort, FAP expression was confirmed in these malignancies on PET/CT using ^68Ga-FAP-2286 or ^68Ga-FAPI-04.

[1] = patients
Description: These findings were further corroborated by dosimetric studies.

Compound | tumor washout and tumor retention time (tumor) | bone marrow absorbed dose [1] [Gy/GBq] | effective half-life in the kidneys [1] [h] | effective half-life in the whole body [1] [h] | kidney absorbed dose [1] [Gy/GBq] | whole-body absorbed dose [1] [Gy/GBq] | kidney absorbed dose, range ([1]; range) | absorbed dose in bone metastases ([1]; reported by Kulkarni et al.) [Gy/GBq] | absorbed dose in bone metastases ([1]; reported by Violet et al.) [Gy/GBq] | absorbed dose in bone metastases, range ([1]; reported by Violet et al., range)
N#C[C@@H]1CCCN1C(=O)CNC(=O)c1ccnc2ccc(OCCCN3CCN(C(=O)CN4CCN(CC(=O)O)CCN(CC(=O)O)CCN(CC(=O)O)CC4)CC3)cc12 [FAPI-02] | earlier tumor washout and a correspondingly shorter tumor retention time |  |  |  |  |  |  |  |  | 
N#C[C@@H]1CC(F)(F)CN1C(=O)CNC(=O)c1ccnc2ccc(OCCCN3CCN(C(=O)CN4CCN(CC(=O)O)CCN(CC(=O)O)CCN(CC(=O)O)CC4)CC3)cc12 [FAPI-04] | earlier tumor washout and a correspondingly shorter tumor retention time |  |  |  |  |  |  |  |  | 
O=C([O-])CN1CCN(CC(=O)[O-])CCN(CC(=O)NCC2CCC(C(=O)N[C@@H](Cc3ccc4ccccc4c3)C(=O)NCCCC[C@H](NC(=O)N[C@@H](CCC(=O)O)C(=O)O)C(=O)O)CC2)CCN(CC(=O)[O-])CC1.[177Lu+3] (some centres unmarked) [^177Lu-PSMA-617] |  | 0.03 | 42 | 40 | 0.99 | 0.04 | 0.45–1.6 Gy/GBq | 2.9 | 5.3 | 0.4–10.7 Gy/GBq
